Tests used:
Assay in all cases: relative viability (nuclei count vs DMSO), 5 days (fraction); higher = more cells survive
Bortezomib = compound: CC(C)C[C@H](NC(=O)[C@H](Cc1ccccc1)NC(=O)c1cnccn1)B(O)O [Bortezomib]
Summary of the method: (§1)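 MetaXpress counted nuclei in 4× images of lung cancer cell lines that had been fixed, permeabilised and Hoechst-stained in one step. Before that, cells in 1536-well plates were kept overnight at 37 °C, pinned with five √10-spaced library-drug doses on vehicle-anchored plates, and cultured 5 days without medium change. Viability takes treated-well nuclei over vehicle-well nuclei and uses the median across plates. Plates were accepted only at control CV below 25% and at least one doubling.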

[1] = compound: CC1=CC(=NN1)NC2=CC(=NC(=N2)/C=C/C3=CC=CC=C3)N4CCN(CC4)C
Summary of the method: as §1

Obatoclax = compound: COC1=CC(c2cc3ccccc3[nH]2)=N/C1=C\c1[nH]c(C)cc1C [Obatoclax]
Summary of the method: as §1

Cell Line | relative viability (Bortezomib; 0.0002 µM) | relative viability (Bortezomib; 0.000632 µM) | relative viability (Bortezomib; 0.002 µM) | relative viability (Bortezomib; 0.002 µM, anchor plate) | relative viability (Bortezomib; 0.006325 µM) | relative viability (Bortezomib; 0.02 µM) | relative viability ([1]; 0.08 µM) | relative viability ([1]; 0.253 µM) | relative viability ([1]; 0.8 µM) | relative viability ([1]; 2.53 µM) | relative viability ([1]; 8 µM) | relative viability (Obatoclax; 0.01 µM) | relative viability (Obatoclax; 0.03162 µM) | relative viability (Obatoclax; 0.1 µM) | relative viability (Obatoclax; 0.3162 µM) | relative viability (Obatoclax; 1 µM)
NCI-H727 | 0.919 | 1.06 | 0.897 | 0.936 | 0.647 | 0.171 | 0.835 | 0.688 | 0.924 | 0.441 | 0.374 | 1.09 | 0.88 | 1.14 | 0.972 | 0.658
PC-3 [JPC-3] | 0.905 | 0.998 | 1.04 | 0.82 | 0.358 | 0.231 | 1.03 | 1.07 | 1.09 | 1.04 | 0.726 | 1.02 | 1.01 | 1.01 | 0.985 | 1.02
SW 1573 | 0.963 | 0.981 | 0.947 | 1.02 | 0.11 | 0.0607 | 0.935 | 0.952 | 0.826 | 0.299 | 0.0971 | 1.07 | 0.957 | 0.966 | 0.709 | 0.257
NCI-H2228 | 0.929 | 0.974 | 0.638 | 1.06 | 0.103 | 0.123 | 0.846 | 1.18 | 0.782 | 0.179 | 0.0666 | 0.951 | 0.922 | 1.01 | 0.791 | 0.595
NCI-H1650 | 0.751 | 0.805 | 0.2 | 0.206 | 0.161 | 0.167 | 0.86 | 1.05 | 0.972 | 0.185 | 0.101 | 0.938 | 0.981 | 0.879 | 0.646 | 0.34
NCI-H1944 | 0.926 | 0.94 | 0.917 | – | 0.854 | 0.283 | 0.987 | 0.98 | 0.953 | 0.657 | 0.465 | 1.04 | 0.883 | 1.01 | 1.01 | 1.02
NCI-H1792 | 0.754 | 0.838 | 0.904 | 0.956 | 0.602 | 0.277 | 0.957 | 0.934 | 0.813 | 0.338 | 0.0683 | 0.985 | 0.795 | – | 0.92 | 0.7
COR-L 105 | 0.855 | 0.936 | 0.797 | 0.931 | 0.292 | 0.314 | 0.848 | 1 | 0.891 | 0.301 | 0.27 | 0.884 | 1.08 | 0.992 | 0.69 | 0.436
LU99A | – | 0.737 | 1.03 | 1.14 | 0.797 | 0.303 | 1.02 | 0.883 | 0.786 | 0.426 | 0.269 | 0.925 | 0.963 | 0.622 | 0.922 | 0.364
H3255 | 0.928 | 1.06 | 0.951 | 0.816 | 0.274 | 0.291 | 0.966 | 1.05 | 1.04 | 0.931 | 0.473 | 0.931 | 0.926 | 0.896 | 1 | 0.959
NCI-H1734 | 0.929 | 1.01 | 0.944 | 0.945 | 0.15 | 0.119 | 0.939 | 0.913 | 0.799 | 0.328 | 0.155 | 1.01 | 0.934 | 0.812 | 0.821 | 0.365
NCI-H1915 | 0.948 | 1 | 1.09 | 0.96 | 0.91 | 0.0999 | 1 | 0.96 | 0.96 | 0.705 | 0.22 | 0.973 | 0.949 | 0.898 | 0.999 | 0.941
Calu-6 | 0.998 | 0.965 | 0.974 | 0.961 | 0.118 | 0.0868 | 0.967 | 0.991 | 0.889 | 0.236 | 0.141 | 1 | 0.994 | 0.963 | 0.943 | 0.488
NCI-H2009 | 1.01 | 0.977 | 1.07 | 0.971 | 0.0869 | 0.0749 | 0.995 | 0.95 | 0.997 | 0.646 | 0.243 | 0.958 | 1.02 | 0.85 | 0.626 | 0.301
NCI-H1651 | 0.992 | 0.969 | 0.727 | 0.943 | 0.173 | 0.121 | 1.03 | 0.992 | 0.939 | 0.712 | 0.288 | 0.954 | 0.957 | 1.07 | 0.847 | 0.754
HOP-62 | 1.02 | 0.985 | 0.925 | 0.791 | 0.477 | 0.076 | 1.03 | 1.11 | 1.04 | 0.825 | 0.367 | 1.01 | 0.985 | 0.889 | 1.02 | 1.05
CAL-12T | 0.93 | 0.971 | 0.957 | 1.03 | 0.49 | 0.155 | 0.977 | 0.946 | 0.928 | 0.339 | 0.187 | 0.995 | 0.955 | 1 | 0.483 | 0.328
LCLC-103H | 0.982 | 0.94 | 1.01 | 1.05 | 0.92 | 0.278 | 0.998 | 1.07 | 1.02 | 0.835 | 0.694 | 0.978 | 0.894 | 0.926 | 0.965 | 1.08
NCI-H3122 | 1 | 0.957 | 1.07 | 1 | 0.825 | 0.149 | 1.01 | 0.857 | 0.982 | 0.956 | 0.308 | 0.985 | 0.931 | 0.927 | 0.984 | 1.01
NCI-H1395 | 0.949 | 0.866 | 0.807 | – | 0.332 | 0.293 | 0.916 | 1.04 | 0.882 | 0.431 | 0.279 | 1 | 0.846 | 0.647 | 0.838 | 0.68
PC-14 | 0.957 | 0.939 | 0.942 | 0.871 | 0.188 | 0.0669 | 1 | 1.07 | 0.968 | 0.427 | 0.104 | 0.943 | 1.02 | 0.787 | 0.796 | 0.313
NCI-H2342 | 1.1 | 0.948 | 1.02 | – | 1.03 | 0.748 | 0.913 | 0.938 | 1.1 | 0.916 | 0.366 | 1.02 | 1.08 | 1.06 | 0.857 | 0.954

Source: the supplement of paper PMC10307832
